System: 556581-035-R-J1-PDC complex spheroid growth
Experiment: Anticancer human tumor 556581-035-R-J1-PDC patient-derived ovarian carcinoma cell line growth inhibition [AhR]
Details: for IC50: curve of first compound; for viability, T/C: stronger effect = lower value
Summary of the method: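 Spheroids combined tumor cells with HUVEC endothelial cells and human MSCs as stroma. AhR antagonists were paired with standard or investigational drugs, each dosed in half-log steps down from near clinical Cmax, or from 10 microM where Cmax was unknown.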

[1] = second compound 0.1 µM, first compound 0.00316 µM
[2] = second compound 0.1 µM, first compound 0.01 µM
[3] = second compound 0.1 µM, first compound 0.0316 µM
[4] = second compound 0.1 µM, first compound 0.1 µM
[5] = second compound 0.316 µM, first compound 0.00316 µM
[6] = second compound 0.316 µM, first compound 0.01 µM
[7] = second compound 0.316 µM, first compound 0.0316 µM
[8] = second compound 0.316 µM, first compound 0.1 µM
[9] = second compound 1 µM, first compound 0.00316 µM
[10] = second compound 1 µM, first compound 0.01 µM
[11] = second compound 1 µM, first compound 0.0316 µM
[12] = second compound 1 µM, first compound 0.1 µM
[13] = second compound 3.16 µM, first compound 0.00316 µM
[14] = second compound 3.16 µM, first compound 0.01 µM
[15] = second compound 3.16 µM, first compound 0.0316 µM
[16] = second compound 3.16 µM, first compound 0.1 µM
[17] = second compound 10 µM, first compound 0.00316 µM
[18] = second compound 10 µM, first compound 0.01 µM
[19] = second compound 10 µM, first compound 0.0316 µM
[20] = second compound 10 µM, first compound 0.1 µM
[21] = second compound 0.1 µM, first compound 0.316 µM
[22] = second compound 0.1 µM, first compound 1 µM
[23] = second compound 0.1 µM, first compound 3.16 µM
[24] = second compound 0.1 µM, first compound 10 µM
[25] = second compound 0.316 µM, first compound 0.316 µM
[26] = second compound 0.316 µM, first compound 1 µM
[27] = second compound 0.316 µM, first compound 3.16 µM
[28] = second compound 0.316 µM, first compound 10 µM
[29] = second compound 1 µM, first compound 0.316 µM
[30] = second compound 1 µM, first compound 1 µM
[31] = second compound 1 µM, first compound 3.16 µM
[32] = second compound 1 µM, first compound 10 µM
[33] = second compound 3.16 µM, first compound 0.316 µM
[34] = second compound 3.16 µM, first compound 1 µM
[35] = second compound 3.16 µM, first compound 3.16 µM
[36] = second compound 3.16 µM, first compound 10 µM
[37] = second compound 10 µM, first compound 0.316 µM
[38] = second compound 10 µM, first compound 1 µM
[39] = second compound 10 µM, first compound 3.16 µM
[40] = second compound 10 µM, first compound 10 µM
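Wherever viability, T/C is given: compound exposure lasted 7 days; 100% = DMSO vehicle control growth.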

`CC[C@@]1(O)C(=O)OCc2c1cc1n(c2=O)Cc2cc3c(CN(C)C)c(O)ccc3nc2-1` + Cc1ccccc1N=Nc1ccc(NC(=O)c2ccnn2C)c(C)c1 was tested, and the IC50 (second compound 0.1 µM) was > 0.1 µM, the IC50 (second compound 0.316 µM) was > 0.1 µM and the IC50 (second compound 1 µM) was > 0.1 µM. The IC50 (second compound 3.16 µM) was > 0.1 µM, the IC50 (second compound 10 µM) was > 0.1 µM and the viability, T/C (second compound 0.1 µM, first compound 0.000316 µM) was 94.8%. The viability, T/C (second compound 0.1 µM, first compound 0.001 µM) was 98.5%, the viability, T/C [1] was 91.5% and the viability, T/C [2] was 82.3%. For the same compound, the viability, T/C [3] was 70.4%, the viability, T/C [4] was 50.6% and the viability, T/C (second compound 0.316 µM, first compound 0.000316 µM) was 108%. For the same compound, the viability, T/C (second compound 0.316 µM, first compound 0.001 µM) was 104%, the viability, T/C [5] was 92.6% and the viability, T/C [6] was 73.7%. For the same compound, the viability, T/C [7] was 69.1%, the viability, T/C [8] was 54.9% and the viability, T/C (second compound 1 µM, first compound 0.000316 µM) was 101%. For the same compound, the viability, T/C (second compound 1 µM, first compound 0.001 µM) was 93.7%, the viability, T/C [9] was 84.7% and the viability, T/C [10] was 79.1%. The viability, T/C [11] was 65%, the viability, T/C [12] was 60.3% and the viability, T/C (second compound 3.16 µM, first compound 0.000316 µM) was 81.3%. The viability, T/C (second compound 3.16 µM, first compound 0.001 µM) was 83%, the viability, T/C [13] was 83.4% and the viability, T/C [14] was 72%. For the same compound, the viability, T/C [15] was 62.9%, the viability, T/C [16] was 53.1% and the viability, T/C (second compound 10 µM, first compound 0.000316 µM) was 89.2%. For the same compound, the viability, T/C (second compound 10 µM, first compound 0.001 µM) was 91.4%, the viability, T/C [17] was 91.1% and the viability, T/C [18] was 69%. The viability, T/C [19] was 64.7% and the viability, T/C [20] was 55.1%.
In the case of `CCc1c2c(nc3ccc(O)cc13)-c1cc3c(c(=O)n1C2)COC(=O)[C@]3(O)CC` + Cc1ccccc1N=Nc1ccc(NC(=O)c2ccnn2C)c(C)c1, the IC50 (second compound 0.1 µM) is reported as 0.0212 µM, the IC50 (second compound 0.316 µM) is reported as 0.017 µM and the IC50 (second compound 1 µM) is reported as 0.0188 µM. The IC50 (second compound 3.16 µM) was 0.0205 µM, the IC50 (second compound 10 µM) was 0.0221 µM and the viability, T/C (second compound 0.1 µM, first compound 0.000949 µM) was 97.1%. For the same compound, the viability, T/C (second compound 0.1 µM, first compound 0.003 µM) was 87.2%, the viability, T/C (second compound 0.1 µM, first compound 0.00949 µM) was 64.8% and the viability, T/C (second compound 0.1 µM, first compound 0.03 µM) was 42%. The viability, T/C (second compound 0.1 µM, first compound 0.0949 µM) was 27.1%, the viability, T/C (second compound 0.1 µM, first compound 0.3 µM) was 12.8% and the viability, T/C (second compound 0.316 µM, first compound 0.000949 µM) was 98.1%. It also gave a viability, T/C (second compound 0.316 µM, first compound 0.003 µM) of 86.4%, a viability, T/C (second compound 0.316 µM, first compound 0.00949 µM) of 64.3% and a viability, T/C (second compound 0.316 µM, first compound 0.03 µM) of 36.5%. The viability, T/C (second compound 0.316 µM, first compound 0.0949 µM) was 18.3%, the viability, T/C (second compound 0.316 µM, first compound 0.3 µM) was 12.7% and the viability, T/C (second compound 1 µM, first compound 0.000949 µM) was 98.8%. For the same compound, the viability, T/C (second compound 1 µM, first compound 0.003 µM) was 82.5%, the viability, T/C (second compound 1 µM, first compound 0.00949 µM) was 64.1% and the viability, T/C (second compound 1 µM, first compound 0.03 µM) was 41.5%. The viability, T/C (second compound 1 µM, first compound 0.0949 µM) was 23.7%, the viability, T/C (second compound 1 µM, first compound 0.3 µM) was 16.7% and the viability, T/C (second compound 3.16 µM, first compound 0.000949 µM) was 84%. For the same compound, the viability, T/C (second compound 3.16 µM, first compound 0.003 µM) was 86.5%, the viability, T/C (second compound 3.16 µM, first compound 0.00949 µM) was 74.6% and the viability, T/C (second compound 3.16 µM, first compound 0.03 µM) was 37.2%. It also gave a viability, T/C (second compound 3.16 µM, first compound 0.0949 µM) of 20.7%, a viability, T/C (second compound 3.16 µM, first compound 0.3 µM) of 14.1% and a viability, T/C (second compound 10 µM, first compound 0.000949 µM) of 94.5%. The viability, T/C (second compound 10 µM, first compound 0.003 µM) was 88.3%, the viability, T/C (second compound 10 µM, first compound 0.00949 µM) was 72.9% and the viability, T/C (second compound 10 µM, first compound 0.03 µM) was 40.8%. The viability, T/C (second compound 10 µM, first compound 0.0949 µM) was 23.2% and the viability, T/C (second compound 10 µM, first compound 0.3 µM) was 14.2%.
With `COc1cc(C2c3cc4c(cc3C(OC3OC5COC(C)OC5C(O)C3O)C3COC(=O)C23)OCO4)cc(OC)c1O` (stereo not given) + Cc1ccccc1N=Nc1ccc(NC(=O)c2ccnn2C)c(C)c1 the IC50 (second compound 0.1 µM) was > 10 µM, the IC50 (second compound 0.316 µM) was > 10 µM and the IC50 (second compound 1 µM) was > 10 µM. The IC50 (second compound 3.16 µM) was > 10 µM, the IC50 (second compound 10 µM) was > 10 µM and the viability, T/C [3] was 109%. It also gave a viability, T/C [4] of 101%, a viability, T/C [21] of 85.4% and a viability, T/C [22] of 71%. It also gave a viability, T/C [23] of 68.8%, a viability, T/C [24] of 52.5% and a viability, T/C [7] of 110%. The viability, T/C [8] was 106%, the viability, T/C [25] was 85.1% and the viability, T/C [26] was 75.7%. For the same compound, the viability, T/C [27] was 71.5%, the viability, T/C [28] was 51.4% and the viability, T/C [11] was 95.9%. It also gave a viability, T/C [12] of 106%, a viability, T/C [29] of 92.1% and a viability, T/C [30] of 69.7%. For the same compound, the viability, T/C [31] was 66.5%, the viability, T/C [32] was 53.9% and the viability, T/C [15] was 91.9%. For the same compound, the viability, T/C [16] was 104%, the viability, T/C [33] was 94.2% and the viability, T/C [34] was 72%. For the same compound, the viability, T/C [35] was 62.5%, the viability, T/C [36] was 58.7% and the viability, T/C [19] was 93.2%. It also gave a viability, T/C [20] of 98%, a viability, T/C [37] of 89.5% and a viability, T/C [38] of 75.8%. The viability, T/C [39] was 69.7% and the viability, T/C [40] was 56.8%.
`Nc1ccn(C2OC(CO)C(O)C2(F)F)c(=O)n1` (stereo not given) + Cc1ccccc1N=Nc1ccc(NC(=O)c2ccnn2C)c(C)c1 was tested, and the IC50 (second compound 0.1 µM) was < 0.0316 µM, the IC50 (second compound 0.316 µM) was < 0.0316 µM and the IC50 (second compound 1 µM) was < 0.0316 µM. The IC50 (second compound 3.16 µM) was < 0.0316 µM, the IC50 (second compound 10 µM) was < 0.0316 µM and the viability, T/C [3] was 35.5%. It also gave a viability, T/C [4] of 41.6%, a viability, T/C [21] of 38.4% and a viability, T/C [22] of 34.7%. For the same compound, the viability, T/C [23] was 35.5%, the viability, T/C [24] was 34% and the viability, T/C [7] was 31.9%. It also gave a viability, T/C [8] of 37.4%, a viability, T/C [25] of 38.4% and a viability, T/C [26] of 37.6%. For the same compound, the viability, T/C [27] was 35.4%, the viability, T/C [28] was 32.4% and the viability, T/C [11] was 38.3%. It also gave a viability, T/C [12] of 37.2%, a viability, T/C [29] of 41.1% and a viability, T/C [30] of 36.2%. It also gave a viability, T/C [31] of 33.9%, a viability, T/C [32] of 30% and a viability, T/C [15] of 36.1%. For the same compound, the viability, T/C [16] was 36.9%, the viability, T/C [33] was 37.6% and the viability, T/C [34] was 37.7%. For the same compound, the viability, T/C [35] was 37.1%, the viability, T/C [36] was 29% and the viability, T/C [19] was 38%. It also gave a viability, T/C [20] of 42.6%, a viability, T/C [37] of 40.9% and a viability, T/C [38] of 39.7%. For the same compound, the viability, T/C [39] was 37.7% and the viability, T/C [40] was 35.6%.
With `Nc1ncn(C2CC(O)C(CO)O2)c(=O)n1` (stereo not given) + Cc1ccccc1N=Nc1ccc(NC(=O)c2ccnn2C)c(C)c1 the IC50 (second compound 0.1 µM) was > 1 µM, the IC50 (second compound 0.316 µM) was > 1 µM and the IC50 (second compound 1 µM) was > 1 µM. The IC50 (second compound 3.16 µM) was > 1 µM, the IC50 (second compound 10 µM) was > 1 µM and the viability, T/C [1] was 95.9%. The viability, T/C [2] was 95.5%, the viability, T/C [3] was 90.4% and the viability, T/C [4] was 84.7%. The viability, T/C [21] was 85.1%, the viability, T/C [22] was 77.4% and the viability, T/C [5] was 108%. The viability, T/C [6] was 98.8%, the viability, T/C [7] was 85.9% and the viability, T/C [8] was 89.6%. The viability, T/C [25] was 78.7%, the viability, T/C [26] was 74.1% and the viability, T/C [9] was 98.5%. For the same compound, the viability, T/C [10] was 97.7%, the viability, T/C [11] was 95.1% and the viability, T/C [12] was 92.3%. The viability, T/C [29] was 89.2%, the viability, T/C [30] was 78.1% and the viability, T/C [13] was 86.7%. For the same compound, the viability, T/C [14] was 81.6%, the viability, T/C [15] was 81% and the viability, T/C [16] was 79.6%. The viability, T/C [33] was 73%, the viability, T/C [34] was 82.8% and the viability, T/C [17] was 85.4%. The viability, T/C [18] was 77.9%, the viability, T/C [19] was 71.2% and the viability, T/C [20] was 72.4%. The viability, T/C [37] was 77.6% and the viability, T/C [38] was 75.3%.

Source: PubChem BioAssay AID1918999 (Molecular Pharmacology Branch, DTP, NCI, 2023)
